Experimental findings from patent US9174939B2, “Soft rock inhibitors” (Amakem NV, priority 2011, dated 2015) are described below.

One series concerns the target ROCK II (Homo sapiens, UniProt O75116). The experiment in a line: Kinase inhibition (ROCKI or ROCKII), 33P-ATP filter assay. The following applies: 120 min at room temperature. The format is biochemical. On the procedure: C.1.1. Kinase inhibition (ROCKI or ROCKII)
Base Reaction buffer; 20 mM Hepes (pH 7.5), 10 mM MgCl2, 1 mM EGTA, 0.02% Brij35, 0.02 mg/ml BSA, 0.1 mM Na3VO4, 2 mM DTT, 1% DMSO—Required cofactors are added individually to each kinase reaction • Reaction Procedure: • 1. Prepare indicated substrate in freshly prepared Base Reaction Buffer • 2. Deliver any required cofactors to the substrate solution above • 3. Deliver indicated kinase into the substrate solution and gently mix • 4. Deliver compounds in DMSO into the kinase reaction mixture • 5. Deliver ^33P-ATP (specific activity 0.01 μCi/μl final) into the reaction mixture to initiate the reaction. • 6. […] Wash filters extensively in 0.1% Phosphoric acid.

For series [1], the system named is MLC-T18/S19 phosphorylation by endogenous ROCK in A7r5 cells. The experiment in a line: Myosin Light Chain Phosphorylation assay (ELISA, A7r5 cells). Type of series: cell-based. The following applies: A7r5 rat smooth muscle cells, serum-free medium, phospho-MLC-T18/S19 ELISA. As for the experimental part: C.1.4. Myosin Light Chain Phosphorylation assay
Rat smooth muscle cell line A7r5 is used. The endogenous expression of ROCK results in a constitutive phosphorylation of the regulatory myosin light chain at T18/S19. A7r5 cells were plated in DMEM supplemented with 10% FCS in multiwall cell culture plates. After serum starvation overnight, cells were incubated with compounds in serum-free medium.
Quantification of MLC-T18/S19 phosphorylation is assessed in 96 well-plates via ELISA using a phspho-MLC-T18/S19 specific antibody and a secondary detection antibody. Raw data were converted into percent substrate phosphorylation relative to high controls, which were set to 100%. IC50 values were determined using GraphPad Prism 5.01 software using a nonlinear regression curve fit with variable hill slope.

A short description of series [2]: Stability assay in rabbit aqueous humor. Type of series: in vitro ADME. Particulars: 1 μM in rabbit aqueous humor, LC-MS/MS; read-out: t½ Rabbit AH. As for the experimental part:
C.2.3. Stability Assay in Rabbit Aqueous Humor
Compounds are incubated at a concentration of 1 μM in rabbit aqueous humor (AH). Samples are taken at fixed time points and the remnant of compound is determined by LC-MS/MS after protein precipitation.

Series [3] in a line: Stability towards drug metabolizing enzymes in lung S9. The following applies: human, lung S9 (from smokers) with NADPH, UDPGA, PAPS and GSH, read-out: t½ human lung S9. The format is in vitro ADME. As for the experimental part:
C.2.2. Stability Towards Drug Metabolizing Enzymes in Lung S9
A 1 μM solution of the ROCK inhibitors is incubated with a reaction mixture containing lung S9 (from smokers) as well as the cofactors NADPH, UDPGA, PAPS and GSH. Samples are collected at 0, 15, 30 and 60 minutes post incubation. Negative control samples incubated with ROCK inhibitors and S9 fraction in the absence of cofactors are run in parallel. By using LC-MS/MS analysis, the percent of ROCK compounds remaining at each time point, the metabolic half-life of the ROCK compounds (expressed in minutes) and the metabolic half-life of the control compounds are determined.

Series [4] in a line: Stability assay in human plasma. Type of series: in vitro ADME. Particulars: 1 μM compound in human plasma, LC-MS/MS; read-out: t½ human plasma. As for the experimental part:
C.2.1. Stability Assay in Human and/or Rat Plasma
Compounds are incubated at a concentration of 1 μM in rat (mice, dog, monkey, minipig or rabbit) or human plasma. Samples are taken at fixed time points and the remnant of compound is determined by LC-MS/MS after protein precipitation. Half life is expressed in minutes.

Sequence of ROCK II (O75116 whole entry): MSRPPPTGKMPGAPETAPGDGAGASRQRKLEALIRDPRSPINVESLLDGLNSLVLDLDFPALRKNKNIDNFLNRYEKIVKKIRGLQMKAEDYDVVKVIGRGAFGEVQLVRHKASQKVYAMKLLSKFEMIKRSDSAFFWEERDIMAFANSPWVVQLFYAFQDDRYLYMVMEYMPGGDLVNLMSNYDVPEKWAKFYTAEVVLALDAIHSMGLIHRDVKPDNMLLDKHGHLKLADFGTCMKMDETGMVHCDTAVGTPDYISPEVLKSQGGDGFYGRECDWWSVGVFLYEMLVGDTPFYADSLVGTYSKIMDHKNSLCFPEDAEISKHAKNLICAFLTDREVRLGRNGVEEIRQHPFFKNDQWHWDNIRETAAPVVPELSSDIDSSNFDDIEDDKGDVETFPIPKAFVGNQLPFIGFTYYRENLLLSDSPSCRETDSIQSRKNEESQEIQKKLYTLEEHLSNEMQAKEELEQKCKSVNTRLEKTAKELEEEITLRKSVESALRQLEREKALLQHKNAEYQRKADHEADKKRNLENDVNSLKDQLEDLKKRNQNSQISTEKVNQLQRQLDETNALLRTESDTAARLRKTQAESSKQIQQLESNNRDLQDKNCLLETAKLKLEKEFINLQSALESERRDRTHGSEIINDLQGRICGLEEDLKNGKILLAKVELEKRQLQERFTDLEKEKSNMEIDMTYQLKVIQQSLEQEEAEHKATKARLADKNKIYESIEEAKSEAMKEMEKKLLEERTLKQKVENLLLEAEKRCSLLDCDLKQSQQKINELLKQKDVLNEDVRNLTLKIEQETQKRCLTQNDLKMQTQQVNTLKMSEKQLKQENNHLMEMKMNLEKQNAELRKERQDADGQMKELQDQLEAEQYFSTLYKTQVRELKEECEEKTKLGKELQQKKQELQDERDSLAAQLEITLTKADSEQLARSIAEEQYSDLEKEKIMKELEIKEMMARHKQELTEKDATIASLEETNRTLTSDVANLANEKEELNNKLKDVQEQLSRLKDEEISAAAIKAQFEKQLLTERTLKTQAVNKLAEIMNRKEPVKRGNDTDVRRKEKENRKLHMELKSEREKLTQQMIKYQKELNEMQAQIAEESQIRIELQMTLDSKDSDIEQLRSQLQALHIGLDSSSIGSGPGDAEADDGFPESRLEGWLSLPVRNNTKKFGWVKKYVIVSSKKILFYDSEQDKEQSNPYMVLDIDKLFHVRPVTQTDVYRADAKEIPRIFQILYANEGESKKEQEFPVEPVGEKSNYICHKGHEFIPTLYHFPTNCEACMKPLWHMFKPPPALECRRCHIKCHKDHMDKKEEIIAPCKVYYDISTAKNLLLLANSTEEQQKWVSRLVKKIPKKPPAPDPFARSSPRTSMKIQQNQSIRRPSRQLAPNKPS

`COC(=O)c1ccc(C(=O)Nc2cccc(-c3cc(C(=O)Nc4ccncc4F)ccc3CN)c2)cc1` [Compound 16] displayed an IC50 against ROCK II below 0.01 µM.

Regarding `CCCOC(=O)c1ccc(NC(=O)c2cccc(-c3cc(C(=O)Nc4ccncc4F)ccc3CN)c2)cc1C` [Compound 21], the IC50 against ROCK II is below 0.01 µM. Same read-out and setting: to `CCCOC(=O)Cc1cccc(NC(=O)c2cccc(-c3cc(C(=O)Nc4ccncc4F)ccc3CN)c2)c1` [Compound 19] belongs below 0.01 µM. Consider `COC(=O)c1ccc(NC(=O)c2cccc(-c3cc(C(=O)Nc4ccncc4F)ccc3CN)c2)cc1` [Compound 3], for which the IC50 at ROCK II is below 0.01 µM; in series [1] it was below 0.2 µM. Consider `COC(=O)c1cccc(NC(=O)c2cccc(-c3cc(C(=O)Nc4ccncc4F)ccc3CN)c2)c1` [Compound 1], for which the half-life at 1 μM is above 1 h in series [2], above 0.5 h in series [3] and below 0.0833 h in series [4]. Besides, the values for the IC50 (against ROCK II; in series [1]) were below 0.01 µM and below 0.2 µM, respectively.

Regarding `CCCOC(=O)c1cc(NC(=O)c2cccc(-c3cc(C(=O)Nc4ccncc4F)ccc3CN)c2)ccc1C` [Compound 22], on ROCK II, the IC50 is below 0.01 µM. The molecule `COC(=O)c1ccc(C(=O)Nc2cccc(-c3cc(C(=O)Nc4ccncc4F)ccc3CN)c2)nc1` [Compound 18] displayed an IC50 against ROCK II below 0.01 µM. The same measure, in the same setting: to `COC(=O)c1cncc(NC(=O)c2cccc(-c3cc(C(=O)Nc4ccncc4F)ccc3CN)c2)c1` [Compound 7] belongs below 0.01 µM.

In the case of `COC(=O)c1ccc(NC(=O)c2cccc(-c3cc(C(=O)Nc4ccncc4F)ccc3CN)c2)cc1C` [Compound 13], the IC50 against ROCK II is below 0.01 µM. Same read-out and setting: to `COC(=O)c1ccc(NC(=O)c2cccc(-c3cc(C(=O)Nc4ccncc4F)ccc3CN)c2)o1` [Compound 15] belongs below 0.01 µM; to `COC(=O)c1cc(NC(=O)c2cccc(-c3cc(C(=O)Nc4ccncc4F)ccc3CN)c2)ccc1C` [Compound 20], below 0.01 µM. Take `CCCOC(=O)c1cc(F)cc(NC(=O)c2cccc(-c3cc(C(=O)Nc4ccncc4F)ccc3CN)c2)c1` [Compound 10]: the half-inhibitory concentration (IC50) on ROCK II was below 0.1 µM; in series [1] it was below 0.2 µM. At ROCK II, `COC(=O)c1cc(F)cc(NC(=O)c2cccc(-c3cc(C(=O)Nc4ccncc4F)ccc3CN)c2)c1` [Compound 9] had an IC50 below 0.01 µM.

In the case of `CCOC(=O)c1nnc(NC(=O)c2cccc(-c3cc(C(=O)Nc4ccncc4F)ccc3CN)c2)o1` [Compound 14], the IC50 against ROCK II is below 0.01 µM.

With `NCc1ccc(C(=O)Nc2ccncc2F)cc1-c1cccc(NC(=O)c2ccc3c(c2)COC3=O)c1` [Compound 5], the concentration for half-maximal inhibition (IC50) against ROCK II was below 0.01 µM. Besides, in series [4], the half-life at 1 μM was below 1 h. In the case of `COC(=O)c1cccc(C(=O)Nc2cccc(-c3cc(C(=O)Nc4ccncc4F)ccc3CN)c2)c1` [Compound 17], the results for the IC50 (at ROCK II; in series [1]) were below 0.01 µM and below 0.2 µM, respectively.

With `CCCOC(=O)c1ccc(F)c(NC(=O)c2cccc(-c3cc(C(=O)Nc4ccncc4F)ccc3CN)c2)c1` [Compound 12], the 50% inhibitory concentration (IC50) against ROCK II is below 0.01 µM; in series [1], below 0.2 µM. With `CCCOC(=O)c1cccc(NC(=O)c2cccc(-c3cc(C(=O)Nc4ccncc4F)ccc3CN)c2)c1` [Compound 8], the half-life at 1 μM in series [2] is above 1 h; in series [4] it was below 0.0833 h. Also, the IC50 against ROCK II was below 0.01 µM; in series [1] it was below 0.2 µM.

Consider `COC(=O)c1ccc(F)c(NC(=O)c2cccc(-c3cc(C(=O)Nc4ccncc4F)ccc3CN)c2)c1` [Compound 6], for which the results for the IC50 (at ROCK II; in series [1]) were below 0.01 µM and below 0.2 µM, respectively. The half-life at 1 μM in series [4] was below 1 h.

`COC(=O)c1csc(NC(=O)c2cccc(-c3cc(C(=O)Nc4ccncc4F)ccc3CN)c2)n1` [Compound 11] yielded an IC50 at ROCK II below 0.01 µM.

As for `COC(=O)Cc1cccc(NC(=O)c2cccc(-c3cc(C(=O)Nc4ccncc4F)ccc3CN)c2)c1` [Compound 2], the results for the IC50 (against ROCK II; in series [1]) were below 0.01 µM and below 0.2 µM, respectively. Taken in the same sequence, the figures for `COC(=O)Cc1ccc(NC(=O)c2cccc(-c3cc(C(=O)Nc4ccncc4F)ccc3CN)c2)cc1` [Compound 4] were below 0.01 µM and below 0.2 µM.

As a reminder, the IC50 is the concentration needed to halve the response being measured. Higher therefore signals lower potency.
